In paper PMC2935307 (Biochemical pharmacology, 2010):
“And” between values parts separate entries of the source, which are not always exact repeats. Identical values can stand only once. Like-named read-outs stand apart in the source and are kept apart here.

What was measured:
α4β2*-nAChR [1] = biological target: T1, α4β2*-nAChR (Mus musculus, UniProt O70174+Q9ERK7); conditions: total efflux normalized to baseline
[2] = biological target: epibatidine binding sites (Mus musculus, UniProt O70174+Q9ERK7)
epibatidine binding sites, sequence (Q9ERK7 26-501): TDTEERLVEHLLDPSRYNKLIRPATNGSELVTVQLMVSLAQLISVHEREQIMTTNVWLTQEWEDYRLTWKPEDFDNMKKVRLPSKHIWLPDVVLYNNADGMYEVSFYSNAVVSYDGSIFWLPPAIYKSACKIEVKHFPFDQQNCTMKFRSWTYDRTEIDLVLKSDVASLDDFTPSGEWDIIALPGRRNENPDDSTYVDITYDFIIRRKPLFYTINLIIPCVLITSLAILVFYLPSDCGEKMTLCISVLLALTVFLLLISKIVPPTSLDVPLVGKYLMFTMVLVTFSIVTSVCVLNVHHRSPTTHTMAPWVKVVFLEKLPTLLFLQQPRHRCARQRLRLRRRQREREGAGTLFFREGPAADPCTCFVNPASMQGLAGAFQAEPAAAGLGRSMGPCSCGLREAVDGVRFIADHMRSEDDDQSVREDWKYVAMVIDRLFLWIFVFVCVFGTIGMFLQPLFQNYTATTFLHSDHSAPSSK
epibatidine binding sites, sequence (O70174 31-629): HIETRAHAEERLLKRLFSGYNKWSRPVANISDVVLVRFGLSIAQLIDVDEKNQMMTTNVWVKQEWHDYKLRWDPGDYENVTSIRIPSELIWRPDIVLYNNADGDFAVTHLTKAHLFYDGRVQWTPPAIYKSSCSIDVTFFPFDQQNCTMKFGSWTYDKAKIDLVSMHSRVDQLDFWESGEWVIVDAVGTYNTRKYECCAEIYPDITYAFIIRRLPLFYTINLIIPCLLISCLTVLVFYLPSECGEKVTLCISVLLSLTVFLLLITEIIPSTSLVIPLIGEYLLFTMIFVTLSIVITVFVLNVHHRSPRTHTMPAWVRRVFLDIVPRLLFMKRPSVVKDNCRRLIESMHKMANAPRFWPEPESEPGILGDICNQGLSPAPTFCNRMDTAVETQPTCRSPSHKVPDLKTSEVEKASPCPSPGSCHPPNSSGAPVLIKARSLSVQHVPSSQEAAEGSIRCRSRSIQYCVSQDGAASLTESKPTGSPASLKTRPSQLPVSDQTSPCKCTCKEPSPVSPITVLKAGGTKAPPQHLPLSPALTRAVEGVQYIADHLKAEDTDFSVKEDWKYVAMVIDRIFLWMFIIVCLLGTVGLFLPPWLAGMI

α4β2*-nAChR [3] = biological target: T1, α4β2*-nAChR; conditions: cited from earlier work
[4] = system: α4β2*-nAChR binding sites; conditions: mice treated chronically with nicotine; cited from earlier work
α4β2-nAChR = conditions: read-out: IC50 for desensitization by nicotine; transfected cells; cited from earlier work
α4β2*-nAChR [5] = biological target: T1, α4β2*-nAChR; experiment: biochemical
[6] = biological target: high affinity epibatidine binding sites (Mus musculus, UniProt O70174+Q9ERK7); experiment: biochemical
high affinity epibatidine binding sites, sequence (Q9ERK7 26-501): as the sequence (Q9ERK7 26-501) above
high affinity epibatidine binding sites, sequence (O70174 31-629): as the sequence (O70174 31-629) above

α4β2*-nAChR [7] = biological target: T1, α4β2*-nAChR; assay type: biochemical
[8] = cortex, nicotine infusion 0.5 mg/kg/hr
[9] = cortex, nicotine infusion 4.0 mg/kg/hr
[10] = thalamus, nicotine infusion 0.5 mg/kg/hr
[11] = thalamus, nicotine infusion 4.0 mg/kg/hr
[12] = HS EC50 for 86Rb+ efflux from Marks et al., 1999, errors by Taylor's expansion
[13] = IC50 for desensitization of the LS component
[14] = LS EC50 for 86Rb+ efflux from Marks et al., 1999, errors by Taylor's expansion

T1 sequence (Q9ERK7 26-501): as the sequence (Q9ERK7 26-501) above
T1 sequence (O70174 31-629): as the sequence (O70174 31-629) above

CN1CCC[C@H]1c1cccnc1 [nicotine]
High Sensitivity 86Rb+ Efflux (maximal) (α4β2*-nAChR [1]; [8]): 2.06±0.19 | Low Sensitivity 86Rb+ Efflux (maximal) (α4β2*-nAChR [1]; [8]): 6.80±0.50 | High Sensitivity 86Rb+ Efflux (maximal) (α4β2*-nAChR [1]; [9]): 1.88±0.11 | Low Sensitivity 86Rb+ Efflux (maximal) (α4β2*-nAChR [1]; [9]): 5.63±0.80 | High Sensitivity 86Rb+ Efflux (maximal) (α4β2*-nAChR [1]; [10]): 10.19±0.99 | Low Sensitivity 86Rb+ Efflux (maximal) (α4β2*-nAChR [1]; [10]): 13.84±2.48 | High Sensitivity 86Rb+ Efflux (maximal) (α4β2*-nAChR [1]; [11]): 6.76±1.19 | Low Sensitivity 86Rb+ Efflux (maximal) (α4β2*-nAChR [1]; [11]): 12.52±1.96 | [125I]-Epibatidine Bound [2, 8]: 127.9±1.1 fmol/mg protein | [125I]-Epibatidine Bound [2, 9]: 139.0±1.2 fmol/mg protein | [125I]-Epibatidine Bound [2, 10]: 240.7±2.5 fmol/mg protein | [125I]-Epibatidine Bound [2, 11]: 256.8±2.9 fmol/mg protein | Difference in EC50 values for stimulation of HS and LS responses (α4β2*-nAChR [3]): 94 fold | average dose for half-maximal upregulation of α4β2*-nAChR binding sites [4]: 0.44 mg/kg/h | IC50 (α4β2-nAChR): […]

O=c1cccc2n1C[C@@H]1CNC[C@H]2C1 [cytisine]
Difference in EC50 values for stimulation of HS and LS responses (α4β2*-nAChR [3]): 11,500 fold | Ratio KI High Affinity Binding/Desensitization IC50 (α4β2*-nAChR [5]): 0.119±0.011 | Ratio: HS EC50/Desensitization IC50 (α4β2*-nAChR [5]; [12]): 4.8 | IC50 (α4β2*-nAChR [5]; IC50 Desensitization): 2.7 ± 0.2 nM | IC50 (α4β2*-nAChR [5]; [13]): 5.4 ± 1.4 nM | Ratio: LS EC50/Desensitization IC50 (α4β2*-nAChR [5]; [14]): 56000±23000 | Ki [6]: 0.32 ± 0.02 nM

Clc1ccc(C2CC3CCC2N3)cn1 (racemic) [epibatidine, (±)-epibatidine]
Difference in EC50 values for stimulation of HS and LS responses (α4β2*-nAChR [3]; mouse brain synaptosomes): 39 fold | Ratio KI High Affinity Binding/Desensitization IC50 (α4β2*-nAChR [5]): 0.065±0.022 | Ratio: HS EC50/Desensitization IC50 (α4β2*-nAChR [5]): 154±44 | Ratio: LS EC50/Desensitization IC50 (α4β2*-nAChR [5]): 6000 and 6000±870 | IC50 (α4β2*-nAChR [5]; IC50 Desensitization): 0.37 ± 0.02 nM | IC50 (α4β2*-nAChR [5]; IC50 for desensitization of the HS component): 0.33 ± 0.09 nM | IC50 (α4β2*-nAChR [5]; [13]): 0.38 ± 0.09 nM | % des (α4β2*-nAChR [7]): 69.9 ± 6.1% and 64.5 ± 11.7% and 96.7 ± 8.9% and 93.8 ± 7.4% | Ki [6]: 0.024 ± 0.008 nM

CNC(=O)OCC[N+](C)(C)C.[Cl-] [methylcarbachol, methycarbachol chloride]
Difference in EC50 values for stimulation of HS and LS responses (α4β2*-nAChR [3]; mouse brain synaptosomes): 38 fold | Ratio: HS EC50/Desensitization IC50 (α4β2*-nAChR [5]; [12]): 380 | Ratio: LS EC50/Desensitization IC50 (α4β2*-nAChR [5]; [14]): 56,000 | Ratio KI High Affinity Binding/Desensitization IC50 (α4β2*-nAChR [5]; errors by Taylor's expansion): 0.156±0.042 | % des (α4β2*-nAChR [7]): 50.9 ± 8.8% and 56.0 ± 8.1% and 94.3 ± 7.3% and 88.7 ± 6.4% | Ki ([6]; read-out: Ki, high affinity epibatidine binding): 7.9 ± 1.7 nM
